{"source": "the NIST ThermoML archive (doi:10.1021/acs.jced.6b00833)", "conditions": "101.33 kPa, Liquid, Vibrating tube method", "note": "Numbers after ± are expanded uncertainties."}
{"smiles": "CC(=O)[O-].CCn1cc[n+](C)c1", "note": "[1-ethyl-3-methylimidazolium acetate]", "values": [{"measurement": "mass density", "setting": "298.15 K", "value": "1097.83 ± 6.9", "unit": "kg/m3"}, {"measurement": "mass density", "setting": "303.15 K", "value": "1094.72 ± 6.9", "unit": "kg/m3"}, {"measurement": "mass density", "setting": "308.15 K", "value": "1091.64 ± 6.9", "unit": "kg/m3"}, {"measurement": "mass density", "setting": "313.15 K", "value": "1088.57 ± 6.8", "unit": "kg/m3"}, {"measurement": "mass density", "setting": "318.15 K", "value": "1085.52 ± 6.8", "unit": "kg/m3"}, {"measurement": "mass density", "setting": "323.15 K", "value": "1082.49 ± 6.8", "unit": "kg/m3"}, {"measurement": "mass density", "setting": "328.15 K", "value": "1079.48 ± 6.8", "unit": "kg/m3"}, {"measurement": "mass density", "setting": "333.15 K", "value": "1076.48 ± 6.8", "unit": "kg/m3"}, {"measurement": "mass density", "setting": "338.15 K", "value": "1073.49 ± 6.7", "unit": "kg/m3"}, {"measurement": "mass density", "setting": "343.15 K", "value": "1070.51 ± 6.7", "unit": "kg/m3"}, {"measurement": "mass density", "setting": "348.15 K", "value": "1067.55 ± 6.7", "unit": "kg/m3"}, {"measurement": "mass density", "setting": "353.15 K", "value": "1064.6 ± 6.7", "unit": "kg/m3"}, {"measurement": "mass density", "setting": "358.15 K", "value": "1061.66 ± 6.7", "unit": "kg/m3"}, {"measurement": "mass density", "setting": "363.15 K", "value": "1058.74 ± 6.6", "unit": "kg/m3"}]}
{"smiles": "CCC[N+]1(C)CCCC1.N#CN=C=[N-]", "note": "[1-methyl-1-propylpyrrolidinium dicyanamide]", "values": [{"measurement": "mass density", "setting": "298.15 K", "value": "1026.76 ± 6.2", "unit": "kg/m3"}, {"measurement": "mass density", "setting": "303.15 K", "value": "1023.9 ± 6.2", "unit": "kg/m3"}, {"measurement": "mass density", "setting": "308.15 K", "value": "1021.05 ± 6.2", "unit": "kg/m3"}, {"measurement": "mass density", "setting": "313.15 K", "value": "1018.22 ± 6.2", "unit": "kg/m3"}, {"measurement": "mass density", "setting": "318.15 K", "value": "1015.41 ± 6.1", "unit": "kg/m3"}, {"measurement": "mass density", "setting": "323.15 K", "value": "1012.62 ± 6.1", "unit": "kg/m3"}, {"measurement": "mass density", "setting": "328.15 K", "value": "1009.85 ± 6.1", "unit": "kg/m3"}, {"measurement": "mass density", "setting": "333.15 K", "value": "1007.08 ± 6.1", "unit": "kg/m3"}, {"measurement": "mass density", "setting": "338.15 K", "value": "1004.33 ± 6.1", "unit": "kg/m3"}, {"measurement": "mass density", "setting": "343.15 K", "value": "1001.6 ± 6.1", "unit": "kg/m3"}, {"measurement": "mass density", "setting": "348.15 K", "value": "998.88 ± 6", "unit": "kg/m3"}, {"measurement": "mass density", "setting": "353.15 K", "value": "996.18 ± 6", "unit": "kg/m3"}, {"measurement": "mass density", "setting": "358.15 K", "value": "993.49 ± 6", "unit": "kg/m3"}, {"measurement": "mass density", "setting": "363.15 K", "value": "990.81 ± 6", "unit": "kg/m3"}]}
{"smiles": "CCCC[N+](C)(C)C.O=S(=O)([N-]S(=O)(=O)C(F)(F)F)C(F)(F)F", "note": "[butyltrimethylammonium bis(trifluoromethylsulfonyl)imide]", "values": [{"measurement": "mass density", "setting": "298.48 K", "value": "1392.89 ± 8.4", "unit": "kg/m3"}]}
{"smiles": "C[S+](C)[O-]", "note": "[dimethyl sulfoxide]", "values": [{"measurement": "mass density", "setting": "293.15 K", "value": "1100.42 ± 6.6", "unit": "kg/m3"}, {"measurement": "mass density", "setting": "298.15 K", "value": "1095.41 ± 6.6", "unit": "kg/m3"}, {"measurement": "mass density", "setting": "303.15 K", "value": "1090.38 ± 6.5", "unit": "kg/m3"}, {"measurement": "mass density", "setting": "308.15 K", "value": "1085.36 ± 6.5", "unit": "kg/m3"}, {"measurement": "mass density", "setting": "313.15 K", "value": "1080.34 ± 6.5", "unit": "kg/m3"}, {"measurement": "mass density", "setting": "318.15 K", "value": "1075.32 ± 6.5", "unit": "kg/m3"}, {"measurement": "mass density", "setting": "323.15 K", "value": "1070.31 ± 6.4", "unit": "kg/m3"}, {"measurement": "mass density", "setting": "328.15 K", "value": "1065.29 ± 6.4", "unit": "kg/m3"}, {"measurement": "mass density", "setting": "333.15 K", "value": "1060.28 ± 6.4", "unit": "kg/m3"}, {"measurement": "mass density", "setting": "338.15 K", "value": "1055.26 ± 6.3", "unit": "kg/m3"}, {"measurement": "mass density", "setting": "343.15 K", "value": "1050.23 ± 6.3", "unit": "kg/m3"}, {"measurement": "mass density", "setting": "348.15 K", "value": "1045.21 ± 6.3", "unit": "kg/m3"}, {"measurement": "mass density", "setting": "353.15 K", "value": "1040.19 ± 6.2", "unit": "kg/m3"}, {"measurement": "mass density", "setting": "358.15 K", "value": "1035.15 ± 6.2", "unit": "kg/m3"}, {"measurement": "mass density", "setting": "363.15 K", "value": "1030.12 ± 6.2", "unit": "kg/m3"}]}
{"smiles": "CCCC[P+](C)(CCCC)CCCC.O=C[O-]", "note": "[tributylmethylphosphonium formate]", "values": [{"measurement": "mass density", "setting": "298.15 K", "value": "950.7 ± 5.9", "unit": "kg/m3"}, {"measurement": "mass density", "setting": "303.15 K", "value": "947.9 ± 5.9", "unit": "kg/m3"}, {"measurement": "mass density", "setting": "308.15 K", "value": "945 ± 5.9", "unit": "kg/m3"}, {"measurement": "mass density", "setting": "313.15 K", "value": "942.1 ± 5.9", "unit": "kg/m3"}, {"measurement": "mass density", "setting": "318.15 K", "value": "939.2 ± 5.8", "unit": "kg/m3"}, {"measurement": "mass density", "setting": "323.15 K", "value": "936.3 ± 5.8", "unit": "kg/m3"}, {"measurement": "mass density", "setting": "328.15 K", "value": "933.5 ± 5.8", "unit": "kg/m3"}]}
